These results are taken from patent US20170283850A1, “METHODS OF DETECTING ADENOSINE DEAMINASE DEFICIENCY” (CHILDREN'S HOSPITAL OF EASTERN ONTARIO, priority 2014, published 2017).

A short description of data set [1]: Stability of purine metabolites in DBS on storage. It is filed as physicochemical. As to conditions: 5 and 25 μmol/L in DBS, stored 4.5 weeks at −20° C., 23° C. (ambient) and 30° C. The protocol:
Stability of purine metabolites in DBS was assessed by storing spiked samples (5 and 25 μmol/L) at various temperatures (ambient, −20° C. and 30° C.). Analysis was carried out as described over a period of […].
Analysis of DBS specimens containing Ado, dAdo, Gua and dGua at 5 and 25 μmol/L stored for a period of 4.5 weeks at −20° C., 23° C.

The target in another data set is ADA (Homo sapiens, UniProt P00813). The following applies: DBS eluate, substrate 1.0 μmol/L, 37° C., 30 minutes or more.
ADA, sequence (P00813 whole entry): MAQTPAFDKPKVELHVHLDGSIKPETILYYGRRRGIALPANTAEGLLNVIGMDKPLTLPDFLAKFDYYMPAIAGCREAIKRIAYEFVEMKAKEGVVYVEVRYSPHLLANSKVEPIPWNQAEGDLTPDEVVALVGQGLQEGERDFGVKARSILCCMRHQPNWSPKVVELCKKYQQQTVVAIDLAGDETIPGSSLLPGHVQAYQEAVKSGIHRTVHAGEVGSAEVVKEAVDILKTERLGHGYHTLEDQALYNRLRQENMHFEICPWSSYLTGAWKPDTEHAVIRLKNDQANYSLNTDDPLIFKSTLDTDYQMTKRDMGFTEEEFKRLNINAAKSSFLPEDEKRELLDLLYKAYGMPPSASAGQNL
A short description of data set [2]: Loss of standard purines added to whole blood (residual ADA activity). It is filed as in vitro ADME. The following applies: whole blood without EHNA. The protocol:
DBS calibrators could not be prepared in this work due to residual ADA activity that persisted after traditional enzyme deactivation treatments such as freeze-thawing or heating whole blood at 45° C. for 24 hours. EHNA, a specific ADA inhibitor, was added to whole blood to prevent the deamination of Ado and dAdo to inosine and deoxyinosine, respectively. Purine metabolites were extracted from 3.2 mm dried calibrators or DBS specimens using an aqueous solution of 70% methanol (v/v) containing isotope labeled IS. This solution was added directly into a 96-well plate containing samples and incubated at 37° C. with shaking (650 rpm). The extraction yield reached its maximum at 15 minutes or more. The following experiments therefore were performed at 37° C. for 15 min. Purine metabolites were stable for at least 24 h when stored in a tightly sealed vial at 8° C.
SCID newborn screening began in the United States following the recent addition of this condition to the uniform panel as recommended by the US Department of Health and Human Services. In Canada, Ontario was the first jurisdiction to screen for SCID, which began in August, 2013. TREC analysis is the primary screening method and can be achieved by real-time PCR using neonatal DBS, the sample of choice for newborn screening. However, TREC analysis is inadequate to provide additional information regarding the etiology of SCID. […]

With `Nc1nc2c(ncn2[C@H]2C[C@H](O)[C@@H](CO)O2)c(=O)[nH]1` [dGua, deoxyguanosine], the “Stability in DBS specimens” value in data set [1] is reported as “stable”.

In the case of “erythro-9-(2-hydroxy-3-nonyl) adenine [EHNA]”, the “Optimum EHNA concentration for ADA activity measurements” value at ADA is at least 10 µM.

For the molecule `Nc1ncnc2c1ncn2[C@H]1C[C@H](O)[C@@H](CO)O1` [dAdo, deoxyadenosine], the “Stability on adding standard purines to whole blood” value in data set [2] was “immediate loss”. The “Stability in DBS specimens” value in data set [1] was “stable”.

In the case of `Nc1nc2c(ncn2[C@@H]2O[C@H](CO)[C@@H](O)[C@H]2O)c(=O)[nH]1` [Gua, guanosine], the “Stability in DBS specimens” value in data set [1] was “stable”.

With `Nc1ncnc2c1ncn2[C@@H]1O[C@H](CO)[C@@H](O)[C@H]1O` [Ado, adenosine], the “Stability on adding standard purines to whole blood” value in data set [2] was “immediate loss”. Also, the “Stability in DBS specimens” value in data set [1] is on record as “stable”.
